Tests used:
DNCB-induced AD mice [1] = assay: Scratching behavior test in DNCB-induced AD mice; format: in vivo, mouse (female BALB/c); details: DNCB group 107
Method: (§1) Female BALB/c mice (6-8 weeks old) provided by the Comparative Medicine Center of Yangzhou University were used in the experiment. All mice were housed under standard feeding conditions with a 12-hour light-dark cycle, and food and water were freely accessible to them. To establish the atopic dermatitis mouse model, the hair on the back of the mice was removed using a shaver and depilatory cream on Day 0 of the experiment. On Day 1 of the experiment, 100 μL of 20 g/L DNCB was applied to the back and 10 μL to the ear of each mouse to induce atopic dermatitis. On Day 5, 8 and 11 of the experiment, 100 μL of 5 g/L DNCB was applied to the back, 10 μL to the ear of each mouse every morning to challenge atopic dermatitis. The mice were euthanized 24 hours after the final challenge. […]
Prior to the start of the experiment, the mice were allowed to acclimatize to the cages for 1 hour to ensure they could relax and display normal behavioral patterns. During this period, the behavior of the mice scratching the skin of their neck, ears and back with their paws was closely observed and recorded.

[2] = Body weight in DNCB-induced AD mice; format: in vivo, mouse (female BALB/c); details: different-dose treatment groups (5 and 20 g/L topical); DNCB group decreased significantly
Method: as §1
(§2) The skin of the mice was photographed at the same time every day to record the skin condition, and the body weight of the mice was measured.

DNCB-induced AD mice [3] = assay: Ear and dorsal skin thickness in DNCB-induced AD mice; format: in vivo, mouse (female BALB/c); details: for average ear skin thickness: DNCB group 0.44; for average dorsal skin thickness: DNCB group 785
Method: (§3) Female BALB/c mice (6-8 weeks old) provided by the Comparative Medicine Center of Yangzhou University were used in the experiment. All mice were housed under standard feeding conditions with a 12-hour light-dark cycle, and food and water were freely accessible to them. To establish the atopic dermatitis mouse model, the hair on the back of the mice was removed using a shaver and depilatory cream on Day 0 of the experiment. On Day 1 of the experiment, 100 μL of 20 g/L DNCB was applied to the back and 10 μL to the ear of each mouse to induce atopic dermatitis. On Day 5, 8 and 11 of the experiment, 100 μL of 5 g/L DNCB was applied to the back, 10 μL to the ear of each mouse every morning to challenge atopic dermatitis. The mice were euthanized 24 hours after the final challenge.
(§4) 5 days after the establishment of the atopic dermatitis model, the mice were randomly divided into 4 groups (6 mice per group): a) normal control group (Ctrl group); b) model group (DNCB group), where 100 μL of normal saline was applied to the back and 10 μL to the ear of each mouse every day; c) low-dose group (DNCB+LSRO group), where 100 μL of 5 g/L aqueous solution of sulfated gluco-galactooligosaccharide was applied to the back of each mouse every day, and 10 μL of 5 g/L aqueous solution of sulfated gluco-galactooligosaccharide was applied to the ear of each mouse every day; and d) high-dose group (DNCB+HSRO group), where 100 μL of 20 g/L aqueous solution of sulfated gluco-galactooligosaccharide was applied to the back of each mouse every day, and 10 μL of 20 g/L aqueous solution of sulfated gluco-galactooligosaccharide was applied to the ear of each mouse every day. The skin condition of the mice was recorded daily.
The ear thickness was accurately measured every day using an electronic caliper. Before the mice were euthanized, the thickness of the dorsal skin was measured with a caliper. Three measurements were taken at different positions on the mid-back, near the neck, and near the tail, and the average value was taken as the final measurement result.

DNCB-induced AD mice [4] = assay: Dorsal skin inflammatory lesions (daily photographs) in DNCB-induced AD mice; format: in vivo, mouse (female BALB/c); details: treatment groups (5 and 20 g/L topical) compared with DNCB group
Method: as §1, §2

DNCB-induced AD mice [5] = assay: Skin histology, H&E staining, in DNCB-induced AD mice; format: in vivo, mouse (female BALB/c); details: treatment groups (5 and 20 g/L topical) compared with DNCB group
Method: as §1

[6] = system: mast cells in skin tissues; assay: Skin histology, toluidine blue (TBO) staining, mast cell number; format: in vivo, mouse (female BALB/c); details: dorsal skin, DNCB group 56
Method: as §1

IL-1β = assay: qRT-PCR of IL-1β mRNA in ear and dorsal skin of DNCB-induced AD mice; format: in vivo, mouse (female BALB/c); details: dorsal and ear skin tissues; 5 and 20 g/L topical, compared with DNCB group
Method: as §1
(§5) After all the mice were euthanized, an appropriate amount of ear and dorsal skin tissues was harvested. […] Real-time fluorescent quantitative PCR (qRT-PCR) was performed to specifically detect the expression of IL-1β, IL-4, IL-8 and TSLP.

IL-4 [7] = assay: qRT-PCR of IL-4 mRNA in ear and dorsal skin of DNCB-induced AD mice; format: in vivo, mouse (female BALB/c); details: dorsal and ear skin tissues; 5 and 20 g/L topical, compared with DNCB group
Method: as §1, §5

IL-8 = assay: qRT-PCR of IL-8 mRNA in ear and dorsal skin of DNCB-induced AD mice; format: in vivo, mouse (female BALB/c); details: dorsal and ear skin tissues; 5 and 20 g/L topical, compared with DNCB group
Method: as §1, §5

TSLP = assay: qRT-PCR of TSLP mRNA in ear and dorsal skin of DNCB-induced AD mice; format: in vivo, mouse (female BALB/c); details: dorsal and ear skin tissues; 5 and 20 g/L topical, compared with DNCB group
Method: as §1, §5

IgE = assay: Determination of IgE in serum (ELISA) of DNCB-induced AD mice; format: in vivo, mouse (female BALB/c); details: DNCB group 12.65
Method: as §1
(§6) Before euthanasia, the mice were anesthetized, and blood samples were collected from the orbit. The blood samples of the mice in each group were analyzed using a fully automatic hematology analyzer. […] The levels of IgE and IL-4 were measured using a double-antibody sandwich enzyme-linked immunosorbent assay, according to the manufacturer's instructions.

IL-4 [8] = assay: Determination of IL-4 in serum (ELISA) of DNCB-induced AD mice; format: in vivo, mouse (female BALB/c); details: DNCB group 253.5
Method: as §1, §6

DNCB-induced AD mice [9] = assay: Weight of spleens and lymph nodes in DNCB-induced AD mice; format: in vivo, mouse (female BALB/c); details: for average weight of the lymph nodes: DNCB group 16.4; for average weight of the spleen: DNCB group 221
Method: as §3, §4
After the mice were euthanized, the spleens and lymph nodes of the mice in each group were harvested and weighed.

[10] = system: HaCaT cells stimulated by TNF-α/IFN-γ; assay: mRNA expression of inflammatory cytokines in HaCaT cells stimulated by TNF-α/IFN-γ; format: cell-based, human; details: TNF-α/IFN-γ 10 ng/ml 18 h, then 100 or 200 μg/mL for 6 h
Method: HaCaT cells were used in the experiment, and their culture was carried out in high-glucose DMEM medium containing 10% fetal bovine serum, 1% streptomycin, and 1% erythromycin. The cells were incubated in a carbon dioxide incubator at 37° C. and passaged using trypsin digestion.
• 1) HaCaT cells were uniformly seeded in 6-well plates at a density of 5×10^5 cells per well. Control group and experimental groups were set up, namely the Ctrl group, TNF-α+IFN-γ group, LSRO+TNF-α+IFN-γ group and HSRO+TNF-α+IFN-γ group. • 2) TNF-α/IFN-γ (10 ng/ml) was added to the TNF-α+IFN-γ, LSRO+TNF-α+IFN-γ and HSRO+TNF-α+IFN-γ groups, respectively, while an equal volume of PBS solution (pH=7.2) was added to the Ctrl group. The plates were shaken crosswise to mix thoroughly, followed by incubation at 37° C. for 18 h in a carbon dioxide incubator. • 3) PBS, PBS, 100 μg/mL and 200 μg/mL sulfated gluco-galactooligosaccharide were added to the Ctrl, TNF-α+IFN-γ, LSRO+TNF-α+IFN-γ and HSRO+TNF-α+IFN-γ groups, respectively. The 6-well plates were placed in a carbon dioxide incubator at 37° C., and the cells were harvested after 6 h of incubation.
HaCaT cells were harvested, followed by RNA extraction and reverse transcription into cDNA. The expression levels of related genes such as IL-4, IL-6 and TNF-α were detected via fluorescent quantitative PCR. […]

[11] = prior studies by the inventors (Carbohydrate Polymers 2025, 347:122782; CN 114533756 A); cited from earlier work
[12] = DNCB+HSRO group, 20 g/L topical daily
[13] = DNCB+LSRO group, 5 g/L topical daily

## sulfated gluco-galactooligosaccharide
DNCB-induced AD mice [1]; DNCB+HSRO group, 20 g/L aqueous solution topical daily (100 μL back, 10 μL ear)
  average scratching frequency: 58 times
DNCB-induced AD mice [1]; DNCB+LSRO group, 5 g/L aqueous solution topical daily (100 μL back, 10 μL ear)
  average scratching frequency: 76 times
[2]
  DNCB-induced weight loss (body weight): not obvious
DNCB-induced AD mice [3]; [12]
  average ear skin thickness: 0.33 mm
  average dorsal skin thickness: 545 μm
DNCB-induced AD mice [3]; [13]
  average ear skin thickness: 0.375 mm
  average dorsal skin thickness: 606 μm
DNCB-induced AD mice [4]
  dorsal skin inflammatory lesions (dryness, erythema, erosion, edema): effectively alleviated these symptoms
DNCB-induced AD mice [5]
  H&E staining of ear and dorsal skin (epidermal hyperplasia, hyperkeratosis, inflammatory cell infiltration): maintained the skin structure integrity, alleviated skin lesions and protected skin tissues from damage
[6]; [12]
  average number of mast cells: 26
[6]; [13]
  average number of mast cells: 32
IL-1β
  mRNA level of IL-1β: significantly decreased in a dose-dependent manner
IL-4 [7]
  mRNA level of IL-4: significantly decreased in a dose-dependent manner
IL-8
  mRNA level of IL-8: significantly decreased in a dose-dependent manner
TSLP
  mRNA level of TSLP: significantly decreased in a dose-dependent manner
IgE; [12]
  average level of IgE in serum: 10.01 µg/mL
IgE; [13]
  average level of IgE in serum: 10.45 µg/mL
IL-4 [8]; [12]
  average level of IL-4 in serum: 201 pg/mL
IL-4 [8]; [13]
  average level of IL-4 in serum: 232 pg/mL
DNCB-induced AD mice [9]; [12]
  average weight of the lymph nodes: 9.45 mg
  average weight of the spleen: 165 mg
DNCB-induced AD mice [9]; [13]
  average weight of the lymph nodes: 10.3 mg
  average weight of the spleen: 183 mg
[10]
  mRNA expression of inflammatory cytokines (IL-4, IL-6, TNF-α): significantly inhibit the elevation of inflammatory cytokines induced by TNF-α/IFN-γ
[11]
  anticoagulant activity: has anticoagulant activity

Reference: US20260284100A1, “USE OF SULFATED GLUCO-GALACTOOLIGOSACCHARIDE IN PREPARATION OF DRUGS FOR TREATING ATOPIC DERMATITIS” (Nanjing University of Science and Technology, priority 2025, published 2026)
